# Results published in patent US8071654B2, “Inhibitors of thromboxane formation and action” (priority 2000, dated 2011).
# Assays:
# TX synthase = target: T1, TX synthase (Homo sapiens, UniProt P24557); test: collagen-evoked TxB2 (and HHT) formation in washed human platelets, HPLC; type: cell-based; conditions: for TX enzyme activity (% of control values, mean ± SD): n = 3, TxB2 and HHT
# T1 construct: endogenous in cells; host or cells: washed human platelets
# T1 sequence (P24557 1-533): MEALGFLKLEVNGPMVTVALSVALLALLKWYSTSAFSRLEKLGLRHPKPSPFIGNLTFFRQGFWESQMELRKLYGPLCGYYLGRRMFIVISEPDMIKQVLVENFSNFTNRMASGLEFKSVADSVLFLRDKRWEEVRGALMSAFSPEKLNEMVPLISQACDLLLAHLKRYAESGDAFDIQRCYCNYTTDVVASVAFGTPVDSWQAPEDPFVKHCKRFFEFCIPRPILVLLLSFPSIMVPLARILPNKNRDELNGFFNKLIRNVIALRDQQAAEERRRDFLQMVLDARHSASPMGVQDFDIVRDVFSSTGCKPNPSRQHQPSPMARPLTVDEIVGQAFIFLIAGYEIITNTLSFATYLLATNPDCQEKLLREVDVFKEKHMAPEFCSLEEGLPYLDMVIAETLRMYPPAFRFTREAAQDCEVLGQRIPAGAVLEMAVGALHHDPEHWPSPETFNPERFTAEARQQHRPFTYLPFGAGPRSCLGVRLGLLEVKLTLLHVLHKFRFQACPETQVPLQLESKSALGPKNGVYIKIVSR
# Experimental: (§1) 0.5 ml of platelet suspension was added to siliconized glass tubes (four at a time) and heated with magnetic stirring to 37° for 1 min in a platelet aggregometer (PAP-4C). Either vehicle alone (ethanol, 1 μl) or hepoxilin analog was then added, followed two min later by agonist (collagen: 2 μg; PGH2: 100 ng/0.5 ml; U46619: 10 ng/0.5 ml or I-BOP: 2 ng/0.5 ml). The response was recorded for the next 5 min. In experiments where analysis of TxB2 and HHT were to be made by HPLC, the platelet suspension at the end of the experiment was diluted with ethyl acetate, 100 ng of prostaglandin B1 was added as internal standard, and the mixture was acidified to pH 3 with 0.1 N HCl. After centrifugation, the organic layer was separated, washed twice with water to neutrality, and evaporated to dryness. Half of the sample was taken and was resuspended in 1 ml ethyl acetate containing 20 μg ADAM reagent, and was left in the dark for 2 h (38). The solvent was then evaporated and the residue was acetylated with a solution of pyridine/acetic anhydride (3/1, v/v) during 16 h at 23°. The reagents were evaporated to dryness and the residue was resuspended in acetonitrile/water for HPLC analysis. In experiments where the conversion of tritiated PGH2 was to be monitored, the procedure described above was repeated with tritiated PGH2 instead of unlabeled PGH2. After extraction of the sample as described above, the radiolabeled compounds were analyzed by TLC. Dose response curves for varying amounts of test compounds were generated and the data expressed as % inhibition of collagen-induced platelet aggregation. Each point was investigated 5 times and statistical analysis of the data was carried out using Macintosh Statview statistical software.
# Measurement of eicosanoids formed by platelets during treatment with collagen or the TP receptor agonists in the presence or absence of PBT-3 was carried out by HPLC after appropriate derivatization with a fluorescent tag (anthracyl diazomethane—ADAM) which forms a fluorescent ester (44). The method was adapted to measure the following compounds: TxB2, HHT, 12-HETE and M. The platelet suspension at the end of the experiment was mixed with ethyl acetate, 100 ng of prostaglandin B1 was added as internal standard and the mixture was acidified to pH 3 with 0.1 N HCl. After centrifugation, the organic layer was separated, washed twice with water to neutrality, and evaporated to dryness. The residue was resuspended in ethyl acetate and half of the sample was taken. It was diluted to 0.2 ml with ethyl acetate containing 20 μg ADAM reagent, and was left in the dark for 2 h. The solvent was then evaporated and the residue was acetylated with a solution of pyridine/acetic anhydride (3/1, v/v) for 16 h at 23°. The reagents were evaporated to dryness and the residue was resuspended in acetonitrile/water for HPLC analysis. Dose response curves for varying amounts of test compounds were generated and the data were expressed as % inhibition of agonist-induced platelet aggregation. Each point was investigated 3 times and statistical analysis of the data was carried out using Macintosh Statview statistical software.
# Analysis of the anthryl (ADAM)-acetate derivative of TxB2, HHT and 12 HETE in the extracted platelet samples was carried out on a Hewlett Packard (1100 series) HPLC to which was attached a Shimadzu fluorescent detector (RF-10AXL). The detector was operated with excitation at 364 nm, emission at 411 nm. Chromatographic separation of the compound was carried out on a Waters C18 Novapak column (3.9×300 mm) using acetonitrile/water 80/20 at injection with a linear gradient to 100% acetonitrile during 20 min. TLC separation of tritiated platelet extracts was carried out on 20 cm silica gel G glass plates (Brinkman), with chloroform/methanol/acetic acid/water (90/9/1/0.65, v/v) as developing solvent in a paper lined glass tank at 23°. […]
# TxB2 formation = test: metabolism of [3H]-PGH2 to TxB2 by human platelets, TLC; type: cell-based; conditions: two doses of PBT-3, TLC profile
# Experimental: as §1, with “The solvent was then evaporated and the residue was acetylated with a solution of pyridine/acetic anhydride (3/1, v/v) during 16 h at 23°. The reagents were evaporated to dryness and the residue was resuspended in acetonitrile/water for HPLC analysis.” left out, “Each point was investigated 5 times and statistical analysis of the data was carried out using Macintosh Statview statistical software.” left out
structure (smiles),measurement,setting,value
"CCCCC/C=C\CC1CC1[C@@H](O)/C=C\C/C=C\CCCC(=O)OC (stereo partly drawn) [PBT-3, 10(S)-hydroxy-11,12-cyclopropyl-eicosa-5Z,8Z,14Z-trienoic acid methyl ester]","TX enzyme activity (% of control values, mean ± SD)",TX synthase; PBT-3 0.05 μM,94.2 ± 15.2^NS % of control
same,"TX enzyme activity (% of control values, mean ± SD)",TX synthase; PBT-3 0.30 μM,65.7 ± 6.0 % of control
same,"TX enzyme activity (% of control values, mean ± SD)",TX synthase; PBT-3 0.60 μM,41.0 ± 4.7 % of control
same,"TX enzyme activity (% of control values, mean ± SD)",TX synthase; PBT-3 3.00 μM,29.9 ± 6.7 % of control
same,"inhibition of TxB2 formation in platelets, in words","TX synthase; Table 1, last column",significantly inhibited
same,IC50,"TX synthase; washed human platelets, read-out: IC50 for block of collagen-evoked formation of thromboxane",800 nM
same,inhibition of formation of tritiated TxB2 from [3H]-PGH2,TxB2 formation,inhibitory action
